Here are results for 13 compounds from patent EP0343643B1, “Arylmethylenyl derivatives of thiazolidnones, imidazolidinones and oxazolidinones useful as antiallergy agents and antiinflamatory agents” (WARNER-LAMBERT COMPANY, priority 1988, dated 1989).

Broadly, the inhibition is the percentage by which the read-out fell short of the control.

One experiment concerns human basophils. The experiment is described as follows: Histamine release from human basophils (HHB), anti-IgE challenge. Type of experiment: cell-based. Further details: key to HHB % Inhibition of Histamine Release at 33 µM: *: Indicates not active at 33 µM. The note with it: 33 µM drug, human basophils challenged with anti-IgE. From the text: HISTAMINE RELEASE FROM HUMAN BASOPHILS (hereinafter HHB)
The HHB assay quantitates active histamine release, and its inhibition by drugs, from basophils of human blood. Thus, the assay provides evaluation of the compounds of formula I for treating the conditions or diseases as is the present invention. As described herein the assay includes modifications of the method described by R. P. Siraganian in "An Automated Continuous-Flow System for the Extraction and Fluorometric Analysis of Histamine", Anal. Biochem., 57, 383-394 (1974).
Blood is drawn from allergic donors (chosen on the basis of adequate histamine release induced by a challenge), using standard venipuncture methods, into Vacutainers with EDTA in water as anticoagulant. The blood samples are placed briefly on a rotary mixer. The blood is mixed with Hespan (hydroxy ethyl starch, 0.5 ml per 1.0 ml of blood), the tube inverted several times to mix and then left undisturbed at room temperature until a sharp separation is observed between the settled red cells and the leukocyte and platelet-rich plasma. This usually occurs within 35-45 minutes.
The plasma fraction is removed and centrifuged for 12 minutes at 4°C at 1050 RPM (100 Xg). The platelets remain in the plasma and are discarded. The pelleted leukocytes are shaken gently to disrupt the cell button and washed twice with HA buffer containing 0.005 M EDTA and resuspended in HACM buffer to approximately one-quarter the original blood volume. A sample is prepared for Hematology, where a total white blood cell and platelet count is done using a Coulter Counter.
Aliquots (0.1 ml) of cells are added to triplicate assay tubes containing 0.4 ml of either 6% perchloric acid (for total histamine content), vehicle control (for spontaneous release), or drug. The tubes are incubated at room temperature for 8 minutes, and then placed in a 37°C water bath for 2 more minutes. Buffer or challenge agents (at 37°C) are added to the tubes and they are incubated for an additional 45 minutes at 37°C in a shaking water bath. The tubes are then spun at 2000 RPM (1200 g) for 3 minutes to pellet the cells and the supernatants are removed and assayed for histamine by the fluorometric method.
A 300 µM stock solution of each test compound is prepared in distilled water, using 0.5 ml DMSO/100 ml and/or 0.2 ml of 1N NaOH or HCl and/or heat to aid in dissolution. Five ml of the stock solution is diluted (1:2) with 5 ml of two times concentrated HACM buffer to yield the stock working concentration of 150 µM. When added to the cells and stimulus, a final test concentration of 100 µM drug results. Further dilutions are made with HACM buffer for 33, 10, 3.3, 1.0 µM, etc.
Short ragweed and house dust extracts (Greer Laboratories, Inc.) are supplied as aqueous extracts in stock concentrations of 40,000 and 10,000 protein nitrogen units per milliliter (PNU/ml), respectively. Aqueous solutions of anti-IgE antisera (rabbit-raised antibody) are purchased from Dako via Accurate Chemicals. The aqueous solutions of ragweed, house dust, and anti-IgE are diluted 1:2 with two times concentrated HACM and then further diluted with HACM to yield final stock concentrations of 6000 PNU/ml for ragweed and house dust and 1:50 dilution for the anti-IgE antisera. Further dilutions for working solutions are made in HACM buffer. All stock and working solutions are stored at 4°C. Working solutions comprise 1/6 of the final volume in the cell reaction, therefore, working solutions of challenge agents are made up six times the required final concentration.
In each experiment, cells are challenged according to the previously determined sensitivity of that donor to the particular challenge agent. Short ragweed and house dust concentrations are expressed in PNU/ml, and anti-IgE antisera is expressed as dilutions, e.g., IE-5 (1:100,000), 3E-5 (1:30,000), and IE-4 (1:10,000).
The total histamine concentration in the "total" (acid-treated) samples must be 15 ng/ml to be acceptable. […]

The target of a further experiment is T1, cellular 5-lipoxygenase (Rattus norvegicus, UniProt P12527).
T1 construct: ARBL/ARBC Whole Cell 5-Lipoxygenase and Cyclooxygenase Assays; host or cells: RBL-1 (rat basophilic leukemia) cells
T1 sequence (P12527 1-673): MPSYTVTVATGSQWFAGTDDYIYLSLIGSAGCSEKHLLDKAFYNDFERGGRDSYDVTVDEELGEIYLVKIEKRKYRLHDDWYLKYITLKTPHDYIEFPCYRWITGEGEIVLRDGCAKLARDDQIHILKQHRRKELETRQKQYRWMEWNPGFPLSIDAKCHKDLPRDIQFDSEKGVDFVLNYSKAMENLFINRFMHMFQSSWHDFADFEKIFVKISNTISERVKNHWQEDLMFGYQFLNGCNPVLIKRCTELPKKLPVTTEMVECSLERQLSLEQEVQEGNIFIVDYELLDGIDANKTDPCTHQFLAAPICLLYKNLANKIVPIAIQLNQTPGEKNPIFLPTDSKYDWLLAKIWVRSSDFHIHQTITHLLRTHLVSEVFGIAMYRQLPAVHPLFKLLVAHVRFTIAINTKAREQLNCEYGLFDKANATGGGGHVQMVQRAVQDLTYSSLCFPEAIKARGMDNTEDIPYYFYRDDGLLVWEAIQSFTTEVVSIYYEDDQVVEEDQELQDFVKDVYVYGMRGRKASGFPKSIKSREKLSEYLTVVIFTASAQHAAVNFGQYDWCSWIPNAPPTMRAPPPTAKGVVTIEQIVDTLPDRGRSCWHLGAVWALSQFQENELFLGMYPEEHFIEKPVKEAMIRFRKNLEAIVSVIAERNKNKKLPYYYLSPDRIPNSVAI
The experiment is described as follows: ARBL whole cell 5-lipoxygenase assay (LTB₄ formation in RBL-1 cells). It counts as cell-based. To be noted: A23187 stimulated, LTB₄ by RIA, read-out: ARBL Percent inhibition of cellular 5-lipoxygenase at 16 µM. The procedure: (§1) ARBL/ARBC Whole Cell 5-Lipoxygenase and Cyclooxygenase Assays The rat basophilic Leukemia cell line (RBL-1) was obtained from the American Type Culture Collection (Rockville, MD). Radioimmunoassay (RIA) kits of LTB₄ and PGF2α were obtained from Amersham (Arlington Heights, IL) and Seragen (Boston, MA), respectively. RBL-1 cells are grown in suspension culture in Eagle's minimum essential medium supplemented with 12% fetal bovine serum at 37°C in an incubator supplied with air-5% carbon dioxide. Cells are harvested by centrifugation. They are washed with cold phosphate buffered saline pH 7.4 (PBS; NaCl, 7.1 g; Na₂HPO₄, 1.15 g; KH₂PO₄, 0.2 g; and KCl, 0.2 g/l). Cells are finally suspended in PBS containing 1.0 mM calcium at a density of 2 x 10⁶ cells/ml. […] Calcium ionophore A23187 (5 µM) is added and cells are incubated for seven minutes at 37°C. The reaction is stopped by chilling the tubes on ice for ten minutes. Cells are separated by centrifugation and the supernatant is stored at -20°. Aliquots (100 µl) are analyzed for LTB₄ and PGF2α using radioimmunoassay kits as provided by the supplier. Table 1 contains biochemical data obtained from this whole cell assay as IC₅₀s which are calculated as the amount of test compound causing 50% inhibition of LTB₄ or PGF2α formation.

The subject of experiment [1] is cellular 5-cyclooxygenase. The experiment is described as follows: ARBC whole cell cyclooxygenase assay (PGF2α formation in RBL-1 cells). Also on record: key: N inactive at screening concentration. Type of experiment: cell-based, rat. To be noted: A23187 stimulated, PGF2α by RIA. As to the method:
as §1

Experiment [2] concerns carrageenan footpad edema. The experiment is described as follows: Carrageenan-induced rat foot paw edema-2 (CFE-2) assay. The note with it: dosed one hour before carrageenan, edema measured five hours after. Type of experiment: in vivo. The procedure: Carrageenan-Induced Rat Foot Paw Edema-2 (CEF-2) Assay: Protocol
Carrageenan solution (1% w/v) is prepared by dissolving 100 mg carrageenan (Marine Colloidal Div., Springfield, NJ) in 10 ml of sterile saline (0.9%) solution (Travenol). The solution is vortexed for 30 to 45 minutes. Animals are dosed with compound one hour before carrageenan challenge. Foot paw edema is induced by injecting 0.10 ml of the 1% carrageenan subcutaneously into the plantar portion of the right hind paw of each rat under light anesthesia. Initial foot paw volume is measured immediately following carrageenan challenge using mercury plethysmography (Buxco Electronics). Edemia is measured five hours after carrageenan. The difference between the five-hour and the initial paw volume is expressed as delta edema. The delta edema for each test group of animals is used to calculate the percent inhibition of edema achieved by the compound at the test dose compared with the vehicle control group. The ID₄₀ (the dose at which swelling is inhibited by 40%) is calculated by probit analysis for the dose at which 40 percent inhibition occurs.
(Carrageenan injected into the paw causes an acute inflammation.)

Setting [3] is: 2-thioxo-4-oxazolidinone series.

With `COc1cc(C=C2SC(=O)NC2=O)cc(OC)c1O` [Example 1, 5-[(4-Hydroxy-3,5-dimethoxyphenyl)methylene]-2,4-thiazolidinedione], in the experiment on human basophils (thiazolidinedione series), the inhibition at 33 µM was found to be 60%.
As for `CC(C)(C)c1cc(C=C2SC(=O)NC2=O)cc(C(C)(C)C)c1O` [Example 2, 5-[[3,5-Bis(1,1-dimethylethyl)-4-hydroxyphenyl]methylene]-2,4-thiazolidinedione], at cellular 5-lipoxygenase, the inhibition at 16 µM was 100%. For the same compound, at 33 µM the inhibition in the experiment on human basophils (thiazolidinedione series) was 49%. In addition, in experiment [1], the “ARBC Percent inhibition of cellular 5-cyclooxygenase at 16 µM” value (shortened to “ARBC Percent inhibition”) came out at 95%. The “CFE Percent inhibition of carrageenan footpad edema (CFE) test” value (from here on “CFE Percent inhibition”) in experiment [2] (dose 1 mg/kg) is on record as 31.8 (1) %; in experiment [2] (dose 3 mg/kg), 39.8 (3) %; in experiment [2] (dose 10 mg/kg), 53.7 (10) %; in experiment [2] (dose 30 mg/kg), 58.8 (30) %.
The compound `COc1cc(C=C2SC(=O)NC2=O)ccc1O` [Example 3] had an inhibition at 33 µM in the experiment with human basophils (thiazolidinedione series) of 81%.
In turn, `COc1cc(C=C2OC(=S)NC2=O)ccc1O` [Example 4, 5-[(4-Hydroxy-3-methoxyphenyl)methylene]-2-thioxo-4-oxazolidinone] registered an inhibition at 33 µM in the experiment on human basophils (setting [3]) of 77%.
Still for that read-out and setting: next, `COc1ccc(C=C2OC(=S)NC2=O)cc1OC` [Example 5, 5-[(3,4-Dimethoxyphenyl)methylene]-2-thioxo-4-oxazolidinone]: 43%.
`COc1cc(C=C2OC(=S)NC2=O)cc(OC)c1O` [Example 6, 5-[(4-Hydroxy-3,5-dimethoxyphenyl)methylene]-2-thioxo-4-oxazolidinone] displayed an inhibition at 33 µM in the experiment on human basophils (setting [3]) of 89%.
On to `COc1cc(C=C2OC(=S)NC2=O)cc(Br)c1O` [Example 8, 5-[(3-Bromo-4-hydroxy-5-methoxyphenyl)methylene]-2-thioxo-4-oxazolidinone], for which, in the experiment on human basophils (setting [3]), the “HHB % Inhibition of Histamine Release at 33 µM” value was “*”.
Regarding `COc1cc(OC)c(OC)cc1C=C1OC(=S)NC1=O` [Example 9, 2-Thioxo-5-[(2,4,5-trimethoxyphenyl)methylene]-4-oxazolidinone], the “HHB % Inhibition of Histamine Release at 33 µM” value with human basophils (setting [3]) is reported as “*”.
Regarding `COc1cc(C=C2OC(=S)NC2=O)cc(OC)c1OC` [Example 10, 2-Thioxo-5-[(3,4,5-trimethoxyphenyl)methylene]-4-oxazolidinone], the inhibition at 33 µM with human basophils (setting [3]) is 76%.
`O=C1NC(=S)OC1=Cc1ccc(O)c(Br)c1` [Example 13, 5-[(3-Bromo-4-hydroxyphenyl)methylene]-2-thioxo-4-oxazolidinone] registered an inhibition at 33 µM in the experiment with human basophils (setting [3]) of 66%.
Turning to `CC(C)(C)c1cc(C=C2OC(=S)NC2=O)cc(C(C)(C)C)c1O` [Example 14], the inhibition at 16 µM on cellular 5-lipoxygenase was determined as 92%. Moreover, the “ARBC Percent inhibition” value in experiment [1] is listed as 86%. Also, the “CFE Percent inhibition” value in experiment [2] (dose 1 mg/kg) is listed as 44.1 (1) %; in experiment [2] (dose 3 mg/kg) it was 41.1 (3) %; in experiment [2] (dose 10 mg/kg) it was 32.1 (10) %; in experiment [2] (dose 30 mg/kg), 40.4 (30) %.
With `CC(C)(C)c1cc(C=C2OC(=O)NC2=O)cc(C(C)(C)C)c1O` [Example 15], the inhibition at 16 µM at cellular 5-lipoxygenase came out at 95%. In experiment [1], the “ARBC Percent inhibition” value is 89%. Besides, the “CFE Percent inhibition” value was 18.5 (1) % in experiment [2] (dose 1 mg/kg), 23.5 (3) % in experiment [2] (dose 3 mg/kg), 36.8 (10) % in experiment [2] (dose 10 mg/kg) and 39.4 (30) % in experiment [2] (dose 30 mg/kg).
Consider `COc1cc(C=C2OC(=O)NC2=O)cc(OC)c1O` [Example 16, 5-[(4-Hydroxy-3,5-dimethoxyphenyl)methylene]-2,4-oxazolidinedione], for which the inhibition at 16 µM at cellular 5-lipoxygenase was 67%. The “ARBC Percent inhibition” value in experiment [1] was “N^(4)”.
